The source of these data is patent US20260098008A1, “COVALENT, CHEMOGENETIC ACTIVATORS FOR K2P POTASSIUM CHANNELS AND USES THEREOF” (THE REGENTS OF THE UNIVERSITY OF CALIFORNIA, priority 2022, published 2026).

Holding throughout (format): cell-based
The target of one assay is T1, A286F TREK-1^CG* (Mus musculus, UniProt P97438, A301F/S146C).
T1 construct: expressed in transfected cells; host or cells: Xenopus laevis oocytes injected with mRNA
T1 sequence (P97438 1-411 isoform P97438-2 S131C/A286F): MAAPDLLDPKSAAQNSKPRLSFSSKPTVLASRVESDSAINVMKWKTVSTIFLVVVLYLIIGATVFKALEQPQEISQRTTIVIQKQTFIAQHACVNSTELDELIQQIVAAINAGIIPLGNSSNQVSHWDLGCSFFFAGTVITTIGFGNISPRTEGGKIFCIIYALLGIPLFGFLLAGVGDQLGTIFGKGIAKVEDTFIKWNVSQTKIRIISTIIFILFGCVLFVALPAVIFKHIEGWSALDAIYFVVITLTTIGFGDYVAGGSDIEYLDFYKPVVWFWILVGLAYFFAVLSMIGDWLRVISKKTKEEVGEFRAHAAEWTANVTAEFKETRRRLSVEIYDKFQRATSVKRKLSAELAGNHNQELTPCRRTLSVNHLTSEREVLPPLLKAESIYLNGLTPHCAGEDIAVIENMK
The assay can be described thus: TEVC in Xenopus oocytes, attenuated channels. The settings on record: 20 μM; sequential addition of ML335, CAT335, BL-1249; 0 mV. The text has this: (§1) Mouse K2P2.1 (TREK-1) (Genbank accession number: NP_034737.2), mouse K2P10.1 (TREK-2) (NM_001316665.1), mouse K2P4.1 (TRAAK) (NM_008431.3), human K2P4.1 (TRAAK) (NM_033310.2) and mouse K2P18.1(TRESK) (NM_207261.3) were used for this study. Point mutations were introduced by site-directed mutagenesis using custom primers and confirmed by sequencing before use. For studies using Xenopus oocytes, K2P channels were subcloned into a previously reported pGEMHE/pMO vector (46). For expression in HEK293 cells, mouse K2P2.1 (TREK-1) and mutants were expressed from a previously described pIRES2-EGFP vector in HEK293 cells (46,47). K2P2.1 (TREK-1) tandems were constructed by connecting the open reading frames for the individual subunits with a linker encoding the […] (SEQ ID NO: 19) sequence. Tandems used for HEK293 cells included an N-terminal HA tag ([…] (SEQ ID NO: 20)) on the first subunit.
(§2) Xenopus laevis oocytes were harvested according to UCSF IACUC Protocol AN129690 and digested using collagenase (Worthington Biochemical Corporation, #LS004183, 0.8-1.0 mg/mL) in Ca^21-free ND96 (96 mM NaCl, 2 mM KCl, 3.8 mM MgCl2, 5 mM HEPES pH 7.4) immediately post-harvest, as previously reported (31,33). Oocytes were maintained at 18° C. in ND96 (96 mM NaCl, 2 mM KCl, 1.8 mM CaCl2, 2 mM MgCl2, 5 mM HEPES pH 7.4) supplemented with antibiotics (100 units mL^−1 penicillin, 100 μg mL^−1 streptomycin, 50 μg mL^−1 gentimycin) and used for experiments within one week of harvest.
(§3) Defolliculated stage V-VI oocytes were microinjected with 0.5-36 ng mRNA and currents were recorded within 16-48 h hours of injection.
(§4) For recordings, oocytes were impaled with borosilicate recording microelectrodes (0.4-2.0 MΩ resistance) backfilled with 3 M KCl and were subjected to constant perfusion of ND96 at a rate of 3 ml min^−1. Recording solutions containing K2P activators were prepared immediately prior to use from DMSO stocks (20-100 mM), with final DMSO concentrations of 0.1%. Currents were evoked from a −80 mV holding potential followed by a 300 ms ramp from −150 mV to +50 mV. Data were recorded using a GeneClamp 500B amplifier (MDS Analytical Technologies) controlled by pCLAMP8 software (Molecular Devices), and digitized at 1 kHz using Digidata 1332 Å digitizer (MDS Analytical Technologies). For each recording, control solution (ND96) was perfused over a single oocyte until current was stable before switching to solutions containing the test compounds at various concentrations. Representative traces and dose response plots were generated in GraphPad Prism 9.

Another assay addresses T2, G171F TREK-1^CG* (Mus musculus, UniProt P97438, G186F/S146C).
T2 construct: expressed in transfected cells; host or cells: Xenopus laevis oocytes injected with mRNA
T2 sequence (P97438 1-411 isoform P97438-2 S131C/G171F): T1 sequence (P97438 1-411 isoform P97438-2 S131C/A286F) with G171F, F286A
The assay can be described thus: TEVC in Xenopus oocytes, attenuated channels. The settings on record: 20 μM; sequential addition of ML335, CAT335, BL-1249; 0 mV.
Text: as §1, §2, §3, §4

In assay [1] the target is T3, WT-WT tandem K2P2.1 (TREK-1) (Mus musculus, UniProt P97438).
T3 construct: expressed in transfected cells; host or cells: Xenopus laevis oocytes injected with mRNA
T3 sequence (P97438 1-411 isoform P97438-2) 1: T1 sequence (P97438 1-411 isoform P97438-2 S131C/A286F) with C131S, F286A
T3 sequence (P97438 1-411 isoform P97438-2) 2: T1 sequence (P97438 1-411 isoform P97438-2 S131C/A286F) with C131S, F286A
The assay can be described thus: TEVC in Xenopus oocytes, tandem channels. Particulars: 20 μM, sequential application.
Text: as §1, §2, §3, §4

SMILES strings stand for the structures. Where a chain is given by its changes, count along the chain named.

In the case of `O=C(NCc1ccc(Cl)cc1Cl)c1ccc(N2C(=O)C=CC2=O)cc1` [CAT335], the entries for the “Fold-activation (I activator/I control)” value (at A286F TREK-1^CG*; on G171F TREK-1^CG*; in assay [1]) were 21±3 fold, 7.8±1.2 fold and 1.37 ± 0.07 fold, respectively.
Take `c1ccc(-c2nn[nH]n2)c(Nc2cccc3c2CCCC3)c1` [BL-1249, reference compound]: the entries for the “Fold-activation (I activator/I control)” value at A286F TREK-1^CG* and at G171F TREK-1^CG* were 53+5 fold and 62+3 fold, respectively.
Consider `CS(=O)(=O)Nc1ccc(C(=O)NCc2ccc(Cl)cc2Cl)cc1` [ML335, reference compound], for which the “Fold-activation (I activator/I control)” value in assay [1] is recorded as 6.8 ± 0.5 fold.
